This is an account of results in US20230124720A1, “APPLICATION OF ACRIDINEDIONE COMPOUND IN PREPARATION OF ANTI-DIABETIC DRUGS” (THE FOURTH MILITARY MEDICAL UNIVERSITY, priority 2020, published 2023).

In test [1] the test system is MIN6 cells. Briefly: Insulin secretion in PA-induced insulin-resistant MIN6 cells. The note with it: PA-induced IR model, 10 μmol/L, 24 h, 2.8 and 16.7 mmol/L glucose; P<0.001. It is filed as cell-based, mouse. The method, then: MIN6 cells were seeded in 24-well plates and cultured as described in step 2.1 to a cell confluency of more than 80% and administrated in the following groups, with 12 replicates per group: (1) normal control group (Con): cultured with blank 1640 medium; (2) insulin resistance model panel (IR): treated with 0.125 mmol/L PA for 24 h to induce establishment of an insulin resistance model; (3) ADD-16 administration group (ADD): 10 μmol/L ADD-16 intervention was administered for 24 h after successful establishment of the insulin resistance model; (4) TAK875 control group (TAK875): 10 μmol/L TAK875 was administered as a positive control drug intervention for 24 h after successful establishment of the insulin resistance model; (5) metformin control group (MT): 10 mmol/L metformin was administered as a positive control drug intervention for 24 h after successful establishment of the insulin resistance model; (6) sitagliptin control group (ST): 10 μmol/L sitagliptin was administered as a positive control drug intervention for 24 h after successful establishment of the insulin resistance model. After the group administration, the medium was aspirated and washed 2 times with a KRB buffer without sugar, followed by the addition of the KRB buffer without sugar. […] After incubation at 37° C. for 1 h, all the medium in the wells was aspirated and centrifuged at 2000 rmp/min for 20 min, and the supernatant was collected and stored at −20° C. The insulin content was measured for each group.

Test [2] relates to MIN6 cells. Put plainly: Western Blot / immunofluorescence of insulin signaling related molecules in insulin-resistant MIN6 cells. Type of test: cell-based, mouse. Conditions: insulin-resistant MIN6 cells, 24 h, P<0.001. How it is done: MIN6 cells were seeded in culture dishes at the appropriate density and cultured as described in step 2.1 to a confluency of about 80%. Cells were divided into the following 5 groups: (1) normal control group (Con): cultured with blank 1640 medium; (2) insulin resistance model panel (IR): treatment with 0.125 mmol/L PA for 24 h to induce establishment of a MIN6 cell insulin resistance model; (3) 3 μmol/L ADD-16 administration group (ADD I): 3 μmol/L ADD-16 intervention was given for 24 h after successful establishment of the insulin resistance model; (4) 10 μmol/L ADD-16 administration group (ADD II): 10 μmol/L ADD-16 intervention was given for 24 h after successful establishment of the insulin resistance model; (5) TAK875 control group (TAK875): 10 μmol/L TAK875 was administered as a positive control drug intervention for 24 h after successful establishment of the insulin resistance model. At the end of the group administration, groups of cells were harvested for WB or IF experiments.

Test [3] has as its system STZ-induced T2DM rats. Put plainly: Insulin tolerance test (ITT) in T2DM rats. Type of test: in vivo, rat. The method, then:
150 male SD rats, housed in cages in a clean constant temperature (23±2° C.) and humidity (55±10%) animal house, were manually adjusted on a daily 12 h/12 h diurnal light cycle with free access to water. After 3 days of adaptive feeding, 150 rats were randomly divided into normal and model groups. The normal (Con, n=15) group of rats remained on raw chow and the model group (n=135) of rats were given high fat high sugar chow. All rats were fed twice daily and the amount of feed was adjusted as needed to ensure adequate feed. After 8 weeks of group feeding, the model group rats were given an intraperitoneal injection of 25 mg/kg STZ solution with a 12 h fast prior to injection. After injection, feeding was continued as in the original method, blood was taken from the tail vein at 72 h for blood glucose measurement, and rats with fasting blood glucose levels ≥11.1 mmol/L on different days were screened for successful artificial induction of T2DM and administered in groups for the next experiment. 135 rats with successful modeling were randomly divided into 9 groups: […] (2) 0.01 mg/kg ADD-16 administration group (ADD I, n=15): daily administration of 0.01 mg/kg ADD-16 solution by gavage; (3) 0.1 mg/kg ADD-16 administration group (ADD II, n=15): daily administration of a 0.1 mg/kg ADD-16 solution by gavage; (4) 1 mg/kg ADD-16 administration group (ADD III, n=15): daily administration of a 1 mg/kg ADD-16 solution by gavage; (5) 3 mg/kg ADD-16 administration group (ADD IV, n=15): daily administration of a 3 mg/kg ADD-16 solution by gavage; (6) 10 mg/kg ADD-16 administration group (ADD V, n=15): daily administration of a 10 mg/kg ADD-16 solution by gavage; (7) 50 mg/kg ADD-16 administration group (ADD VI, n=15): daily administration of a 50 mg/kg ADD-16 solution by gavage; […] (9) Sitagliptin control group (ST, n=15): daily administration of a 6 mg/kg sitagliptin solution by gavage. […] Relevant indicators of lipid metabolism were measured after the end of the study. […] After the 120 min blood glucose value determination was completed, the diet was resumed. In the test, the condition of the rats was observed, and when abnormalities occurred, the experiment was stopped in time and a glucose solution was given by gavage to prevent death due to hypoglycemia.

Test [4] relates to STZ-induced T2DM rats. Briefly: Postprandial blood glucose in STZ-induced T2DM rats. It is filed as in vivo, rat. Conditions: end of administration. How it is done:
150 male SD rats, housed in cages in a clean constant temperature (23±2° C.) and humidity (55±10%) animal house, were manually adjusted on a daily 12 h/12 h diurnal light cycle with free access to water. After 3 days of adaptive feeding, 150 rats were randomly divided into normal and model groups. The normal (Con, n=15) group of rats remained on raw chow and the model group (n=135) of rats were given high fat high sugar chow. All rats were fed twice daily and the amount of feed was adjusted as needed to ensure adequate feed. After 8 weeks of group feeding, the model group rats were given an intraperitoneal injection of 25 mg/kg STZ solution with a 12 h fast prior to injection. After injection, feeding was continued as in the original method, blood was taken from the tail vein at 72 h for blood glucose measurement, and rats with fasting blood glucose levels ≥11.1 mmol/L on different days were screened for successful artificial induction of T2DM and administered in groups for the next experiment. 135 rats with successful modeling were randomly divided into 9 groups: […] (2) 0.01 mg/kg ADD-16 administration group (ADD I, n=15): daily administration of 0.01 mg/kg ADD-16 solution by gavage; (3) 0.1 mg/kg ADD-16 administration group (ADD II, n=15): daily administration of a 0.1 mg/kg ADD-16 solution by gavage; (4) 1 mg/kg ADD-16 administration group (ADD III, n=15): daily administration of a 1 mg/kg ADD-16 solution by gavage; (5) 3 mg/kg ADD-16 administration group (ADD IV, n=15): daily administration of a 3 mg/kg ADD-16 solution by gavage; (6) 10 mg/kg ADD-16 administration group (ADD V, n=15): daily administration of a 10 mg/kg ADD-16 solution by gavage; (7) 50 mg/kg ADD-16 administration group (ADD VI, n=15): daily administration of a 50 mg/kg ADD-16 solution by gavage; […] (9) Sitagliptin control group (ST, n=15): daily administration of a 6 mg/kg sitagliptin solution by gavage. […] Relevant indicators of lipid metabolism were measured after the end of the study.

[5] abbreviates: MT group, 250 mg/kg daily by gavage.
The mark [6] stands for this setting: ST group, 6 mg/kg daily by gavage.

For the molecule `Cc1cc(OCCCS(C)(=O)=O)cc(C)c1-c1cccc(COc2ccc3c(c2)OC[C@H]3CC(=O)O)c1` [TAK875, reference compound], the “insulin secretion level in insulin-resistant MIN6 cells (in words)” value with MIN6 cells [1] is listed as “even higher than in Con group”. Besides, the “expression of insulin signaling-related molecules, Western Blot (in words)” value in the test with MIN6 cells [2] was “upregulate GPR40, PGC-1α, P-P38, P-EP300, PPARγ, P-AKT, PI3K, IRS1 and GLUT4 expression”.

Take `CN(C)C(=N)N=C(N)N` [metformin, reference compound]: in the test on STZ-induced T2DM rats [3] (setting [5]), the “decrease of ITT AUC compared to the TD group” value is on record as 39.9%. For the same molecule, the “reduction in blood glucose compared to the TD group” value in the test with STZ-induced T2DM rats [4] (setting [5]) is listed as 45.0%.

In the case of `N[C@@H](CC(=O)N1CCn2c(nnc2C(F)(F)F)C1)Cc1cc(F)c(F)cc1F` [sitagliptin, reference compound], in the test on MIN6 cells [1], the “insulin secretion level in insulin-resistant MIN6 cells (in words)” value is “even higher than in Con group”. Also, the “decrease of ITT AUC compared to the TD group” value in the test with STZ-induced T2DM rats [3] (setting [6]) was 51.4%. For the same molecule, in the test on STZ-induced T2DM rats [4] (setting [6]), the “reduction in blood glucose compared to the TD group” value is given as 61.5%.
